Assay results from patent publication US7098241B2, “Thiophene hydroxamic acid derivatives” (Hoffmann-La Roche Inc., priority 2002, dated 2006).
Read-outs that look alike come from different tables or passages of the source.

Columns and labels:
[1] = test system: HT-29 cells (human colon carcinoma cell line); experiment: MTT anti-proliferation assay on HT-29 cells; assay type: cell-based; details: 384 well plates, 5 days, read-out: IC50 HT29 384
Description: MTT (3-(4,5-dimethylthiazol-2-yl)-2,5-diphenyl tetrazolium bromide) is widely used for the quantitative determination of cytotoxic effects or in vitro chemosensitivity of tumor cells. The assay is based on the cleavage of the yellow tetrazolium salt (MTT) to purple formazan crystals by metabolic active cells. For details, see Rubinstein, L. V., et al., J. Natl. Cancer Inst. 82 (1990) 1113.
We proceeded as follows: HT-29 cells (human colon carcinoma cell line) were cultivated in RPMI 1640, 2.5% FCS, 2 mM glutamine, 100 u/ml penicillin, 100 ug/ml streptomycin. For the assay the cells were seeded in 384 well plates, 900 cells per well, in the same medium. At the next day, the compounds (dissolved 10 mM in DMSO) were added in various concentrations ranging from 30 uM to 1.5 nM. After 5 days, the MTT assay was done mainly according to the instructions of the manufacturer (Cell proliferation kit I, MTT, from Roche Molecular Biochemicals). In brief: MTT labeling reagent was added to a final concentration of 0.5 mg/ml, added and incubated for 4 hrs at 37° C., 5% CO2. During this incubation time purple formazan crystals are formed. After addition of the solubilization solution (20% SDS in 0.02 M HCl) the plates were incubated overnight at 37° C., 5% CO2. After careful mixing, the plates were measured in Victor 2 (scanning multiwell spectrophotometer, Wallac) at 550 nm.
A decrease in number of living cells results in a decrease in the total metabolic activity in the sample. The decrease directly correlates to the amount of purple color resulting from the solubilization of the purple formazan crystals. Determination of IC50 was done using XL-fit.

recombinant HDAC-1 = target: T1, recombinant HDAC-1 (Homo sapiens, UniProt Q13547); experiment: HDAC biochemical quench assay; details: recombinant HDAC-1 purified from HEK 293 cells, 1 uM peptide substrate, 90 min at room temperature
T1 construct: made in house; host or cells: HEK 293 cells
Description: The function of histone deacetylase (HDAC) is the deacetylation of lysines in e.g. histone H4. A peptide of 17 amino acids derived from histone H4 was labeled with TAMRA at the C-terminus and QSY-7 at the N-terminus and was used as a substrate (TAMRA-first17 aa of histone H4-QSY7). Following deacetylation by HDAC, the enzyme Lys C is able to cleave the peptide after lysine. […] Inhibition of HDAC by compounds results in low signals because Lys C could not cleave the substrate and the quench effect persists.
For dose response curves, 10 concentrations were diluted 1:3 starting at 30 uM. 10 ul compound dilution were put into each well of a 384 well plate. 10 ul HDAC were added (recombinant HDAC-1 purified from HEK 293 cells; enzyme activity has to be assessed for each preparation). 10 ul peptide substrate was added (1 uM final concentration, derived from 1 mM stock solution diluted 1:1000 in test buffer). After 90 min incubation at room temperature, the reaction was stopped by addition of 20 ul test buffer including 3 ug/ml Lys C and 0.075% SDS. After overnight incubation the fluorescence signal of TAMRA was measured (Victor 2 from Wallac, absorption 544 nm, emission 590 nm). The O.D. of DMSO-treated control wells is 100%, the % inhibition of compound treated wells is calculated in relation to 100%. Based on 10 concentrations a IC50 curve is generated by using XL.fit3.
Test buffer used: a mixture of 10 mM Hepes pH8, 10 mM NaCl, 10% Glycerol, 0.005% Triton X100, 0.1 mM EDTA, 0.1 mM TCEP. As plates were used 384 well plates (black, Greiner, 781077).

T1 sequence (Q13547 whole entry, species assumed): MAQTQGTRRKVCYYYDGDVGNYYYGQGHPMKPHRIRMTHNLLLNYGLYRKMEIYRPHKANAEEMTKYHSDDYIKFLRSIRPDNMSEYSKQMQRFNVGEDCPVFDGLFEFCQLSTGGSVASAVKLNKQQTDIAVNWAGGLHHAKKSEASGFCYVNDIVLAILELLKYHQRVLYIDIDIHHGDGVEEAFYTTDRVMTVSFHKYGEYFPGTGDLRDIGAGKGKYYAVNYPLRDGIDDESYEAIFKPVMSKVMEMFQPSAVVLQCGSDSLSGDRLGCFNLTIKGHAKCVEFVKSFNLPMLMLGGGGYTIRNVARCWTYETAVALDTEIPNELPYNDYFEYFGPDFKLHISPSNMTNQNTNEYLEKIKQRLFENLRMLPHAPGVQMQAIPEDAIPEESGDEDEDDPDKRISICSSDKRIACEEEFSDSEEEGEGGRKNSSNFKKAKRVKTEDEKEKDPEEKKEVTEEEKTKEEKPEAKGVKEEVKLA

SMILES | IC50 ([1]; Homo sapiens, 120 h) [nM] | IC50 (recombinant HDAC-1) [nM] | IC50 [1] [nM]
COc1ccc([C@@H](C)NC(=O)c2ccc(C(=O)NO)s2)cc1 [Example 2i, (R)-thiophene-2,5-dicarboxylic acid 2-hydroxyamide 5-{[1-(4-methoxy-phenyl)-ethyl]-amide}] | 50 | 1.79 | 
Cc1ccc([C@@H](C)NC(=O)c2ccc(C(=O)NO)s2)cc1 [Example 2a, (R)-thiophene-2,5-dicarboxylic acid 2-hydroxyamide 5-[(1-p-tolyl-ethyl)-amide]] | 190 | 3.41 | 
COc1cccc([C@@H](C)NC(=O)c2ccc(C(=O)NO)s2)c1 [Example 2h, (R)-thiophene-2,5-dicarboxylic acid 2-hydroxyamide 5-{[1-(3-methoxy-phenyl)-ethyl]-amide}] | 70 | 1.31 | 
O=C(NO)c1ccc(C(=O)N[C@@H]2CCCc3ccccc32)s1 [Example 2n, (R)-thiophene-2,5-dicarboxylic acid 2-hydroxyamide 5-[(1,2,3,4-tetrahydro-naphthalen-1-yl)-amide]] | 350 | 2.86 | 
C[C@@H](NC(=O)c1ccc(C(=O)NO)s1)c1ccc(Cl)cc1 [Example 2c, (R)-thiophene-2,5-dicarboxylic acid 2-{[1-(4-chloro-phenyl)-ethyl]-amide}5-hydroxyamide] | 50 | 3.44 | 
CC[C@H](NC(=O)c1ccc(C(=O)NO)s1)c1ccccc1 [Example 4g, (S)-thiophene-2,5-dicarboxylic acid 2-hydroxyamide 5-[(1-phenyl-propyl)-amide]] | 780 | 3.19 | 
COC[C@H](NC(=O)c1ccc(C(=O)NO)s1)c1ccccc1 [Example 2l, (R)-thiophene-2,5-dicarboxylic acid 2-hydroxyamide 5-[(2-methoxy-1-phenyl-ethyl)-amide]] | 580 | 3.17 | 
O=C(NO)c1ccc(C(=O)N[C@H]2CCCc3ccccc32)s1 [Example 4n, (S)-thiophene-2,5-dicarboxylic acid 2-hydroxyamide 5-[(1,2,3,4-tetrahydro-naphthalen-1-yl)-amide]] | 770 | 0.8 | 
C[C@H](NC(=O)c1ccc(C(=O)NO)s1)c1ccc2ccccc2c1 [Example 4f, (S)-thiophene-2,5-dicarboxylic acid 2-hydroxyamide 5-[(1-naphthalen-2-yl-ethyl)-amide]] |  |  | 920
O=C(NO)c1ccc(C(=O)N[C@H](Cc2ccccc2)c2ccccc2)s1 [Example 8f, (R)-thiophene-2,5-dicarboxylic acid 2-[(1,2-diphenyl-ethyl)-amide]5-hydroxyamide] | 40 | 1.33 | 
C[C@H](NC(=O)c1ccc(C(=O)NO)s1)c1ccc(C(F)(F)F)cc1 [Example 10d, (S)-thiophene-2,5-dicarboxylic acid 2-hydroxyamide 5-{[1-(4-trifluoromethyl-phenyl)-ethyl]-amide}] | 350 | 2.69 | 
C[C@H](NC(=O)c1ccc(C(=O)NO)s1)c1ccc(Cl)cc1 [Example 4c, (S)-thiophene-2,5-dicarboxylic acid 2-{[1-(4-chloro-phenyl)-ethyl]-amide}5-hydroxyamide] |  |  | 840
C[C@@H](NC(=O)c1ccc(C(=O)NO)s1)c1ccc(C(C)(C)C)cc1 [Example 8e, (R)-thiophene-2,5-dicarboxylic acid 2-{[1-(4-tert-butyl-phenyl)-ethyl]-amide}5-hydroxyamide] | 10 | 1.08 | 
O=C(NO)c1ccc(C(=O)N[C@@H](CN2CCOCC2)c2ccccc2)s1 [Example 8c, (R)-thiophene-2,5-dicarboxylic acid 2-hydroxyamide 5-[(2-morpholin-4-yl-1-phenyl-ethyl)-amide]] | 630 | 4.27 | 
COC[C@@H](NC(=O)c1ccc(C(=O)NO)s1)c1ccccc1 [Example 4l, (S)-thiophene-2,5-dicarboxylic acid 2-hydroxyamide 5-[(2-methoxy-1-phenyl-ethyl)-amide]] | 160 | 4.04 | 
CC[C@@H](NC(=O)c1ccc(C(=O)NO)s1)c1ccccc1 [Example 2g, (R)-thiophene-2,5-dicarboxylic acid 2-hydroxyamide 5-[(1-phenyl-propyl)-amide]] | 60 | 1.18 | 
C[C@H](NC(=O)c1ccc(C(=O)NO)s1)c1ccccc1 [Example 4a, (S)-thiophene-2,5-dicarboxylic acid 2-hydroxyamide 5-[(1-phenyl-ethyl)-amide]] |  |  | 840
O=C(NO)c1ccc(C(=O)N[C@H]2CCc3ccccc32)s1 [Example 4m, (S)-thiophene-2,5-dicarboxylic acid 2-hydroxyamide 5-indan-1-ylamide] |  | 2.97 | 
C[C@H](NC(=O)c1ccc(C(=O)NO)s1)c1ccc(C(C)(C)C)cc1 [Example 10e, (S)-thiophene-2,5-dicarboxylic acid 2-{[1-(4-tert-butyl-phenyl)-ethyl]-amide}5-hydroxyamide] | 580 | 1.39 | 
C[C@H](NC(=O)c1ccc(C(=O)NO)s1)c1ccc(Br)cc1 [Example 4d, (S)-thiophene-2,5-dicarboxylic acid 2-{[1-(4-bromo-phenyl)-ethyl]-amide}5-hydroxyamide] |  |  | 880
C[C@@H](NC(=O)c1ccc(C(=O)NO)s1)c1ccc(Br)cc1 [Example 2d, (R)-thiophene-2,5-dicarboxylic acid 2-{[1-(4-bromo-phenyl)-ethyl]-amide}5-hydroxyamide] | 80 | 3.88 | 
C[C@H](NC(=O)c1ccc(C(=O)NO)s1)c1cccs1 [Example 9, (S)-Thiophene-2,5-dicarboxylic Acid 2-hydroxyamide 5-[(1-thiophen-2-yl-ethyl)-amide]] | 520 | 3.82 | 
O=C(NO)c1ccc(C(=O)N[C@H](CN2CCOCC2)c2ccccc2)s1 [Example 10c, (S)-thiophene-2,5-dicarboxylic acid 2-hydroxyamide 5-[(2-morpholin-4-yl-1-phenyl-ethyl)-amide]] |  | 1.94 | 
C[C@@H](NC(=O)c1ccc(C(=O)NO)s1)c1ccc(F)cc1 [Example 2b, (R)-thiophene-2,5-dicarboxylic acid 2-{[1-(4-fluoro-phenyl)-ethyl]-amide}5-hydroxyamide] | 170 | 4.98 | 
C[C@@H](NC(=O)c1ccc(C(=O)NO)s1)c1ccc2ccccc2c1 [Example 2f, (R)-thiophene-2,5-dicarboxylic acid 2-hydroxyamide 5-[(1-naphthalen-2-yl-ethyl)-amide]] | 10 | 4.97 | 
C[C@@H](NC(=O)c1ccc(C(=O)NO)s1)c1ccc(C(F)(F)F)cc1 [Example 8d, (R)-thiophene-2,5-dicarboxylic acid 2-hydroxyamide 5-{[1-(4-trifluoromethyl-phenyl)-ethyl]-amide}] | 30 | 1.26 | 
O=C(NO)c1ccc(C(=O)N[C@@H]2CCc3ccccc32)s1 [Example 2m, (R)-thiophene-2,5-dicarboxylic acid 2-hydroxyamide 5-indan-1-ylamide] | 300 | 1.38 | 
COc1ccc([C@H](C)NC(=O)c2ccc(C(=O)NO)s2)cc1 [Example 4i, (S)-thiophene-2,5-dicarboxylic acid 2-hydroxyamide 5-{[1-(4-methoxy-phenyl)-ethyl]-amide}] | 560 | 2.6 | 
COc1cccc([C@H](C)NC(=O)c2ccc(C(=O)NO)s2)c1 [Example 4h, (S)-thiophene-2,5-dicarboxylic acid 2-hydroxyamide 5-{[1-(3-methoxy-phenyl)-ethyl]-amide}] |  | 1.79 | 
